Common to all, as to format: functional
What all share (design): scale not given: the % may be the effect or the level left

In experiment [1] the test system is Plasmodium yoelii. Briefly: Antimalarial activity as reduced parasitemia at day 4 against multidrug-resistant Plasmodium yoelii in Swiss mice (Mus musculus) at 96 mg/kg Intramuscular dose.
The subject of experiment [2] is Plasmodium yoelii. Briefly: Antimalarial activity against multidrug-resistant Plasmodium yoelii in Swiss mice (Mus musculus) as reduced parasitaemia after 4 days at 96 mg/kg peroral dose. The following applies: route oral.
For experiment [3], the system named is Plasmodium yoelii. Briefly: Antimalarial activity against multidrug-resistant Plasmodium yoelii in Swiss mice (Mus musculus) as reduced parasitaemia after peroral 48 mg/kg dose for 4 days. To be noted: route oral.

Take `C=C(c1ccccc1)C1CCOC2(CCC(O)CC2)OO1` (stereo not given): the Activity in the experiment on Plasmodium yoelii [1] was determined as 21.39%; with Plasmodium yoelii [2] it was 53.59%. In the case of `C=C(c1ccc(-c2ccccc2)cc1)C1CCOC2(OO1)C1CC3CC(C1)CC2C3` (stereo not given), the figures for the Activity in the experiment on Plasmodium yoelii [1] and with Plasmodium yoelii [2] were 31.98% and 44.78%, respectively. With `C=C(c1ccc(Cl)cc1)C1CCOC2(OO1)C1CC3CC(C1)CC2C3` (stereo not given), the results for the Activity in the experiment on Plasmodium yoelii [1] and in the experiment on Plasmodium yoelii [2] were 12.18% and 58.38%, respectively. For the compound `C=C(c1ccccc1)C1CCOC(C)(C)OO1` (stereo not given), the results for the Activity in the experiment with Plasmodium yoelii [1] and in the experiment with Plasmodium yoelii [2] were 87.31% and 92.38%, respectively. For `C=C(c1ccc(Cl)cc1)C1CCOC(C)(C)OO1` (stereo not given), in that order: 57.64% and 48.77%.

With `C=C(c1ccc(Cl)cc1)C1CCOC2(CCC(O)CC2)OO1` (stereo not given), the Activity is reported as 11.47% in the experiment with Plasmodium yoelii [1] and 54.59% with Plasmodium yoelii [2]. For `C=C(c1ccc(Cl)cc1)C1CCOC2(CCC(=O)CC2)OO1` (stereo not given), the Activity worked out at 100% in the experiment with Plasmodium yoelii [1] and 23.36% with Plasmodium yoelii [2]. With `C=C(c1ccc(Cl)cc1)C1CCOC2(CCCC2)OO1` (stereo not given), the Activity is recorded as 6.17% in the experiment with Plasmodium yoelii [1] and 27.16% with Plasmodium yoelii [2]. For the compound `C=C(c1ccc(Cl)cc1)C1CCOC2(CCCCC2)OO1` (stereo not given), the Activity in the experiment on Plasmodium yoelii [1] turned out to be 46.91%; in the experiment on Plasmodium yoelii [2], 24.69%. Turning to `C=C(c1ccccc1)C1CCOC2(CCC(=O)CC2)OO1` (stereo not given), the Activity in the experiment with Plasmodium yoelii [1] is reported as 36.6%; in the experiment with Plasmodium yoelii [2] it was 72.02%.

As for `C=C(c1ccccc1)C1CCOC2(CCCC2)OO1` (stereo not given), the Activity in the experiment with Plasmodium yoelii [1] is reported as 58.71%; in the experiment with Plasmodium yoelii [2], 18.21%. For `C=C(c1cccc2ccccc12)C1CCOC(C)(C)OO1` (stereo not given), the Activity in the experiment with Plasmodium yoelii [1] is listed as 32.1%; in the experiment on Plasmodium yoelii [2] it was 70.37%. As to `C=C(c1ccc(-c2ccccc2)cc1)C1CCOC(C)(C)OO1` (stereo not given), the Activity with Plasmodium yoelii [1] was found to be 42.13%; in the experiment on Plasmodium yoelii [2], 98.22%. Take `C=C(c1cccc2ccccc12)C1CCOC2(OO1)C1CC3CC(C1)CC2C3` (stereo not given): the Activity is 11.11% with Plasmodium yoelii [1] and 38.27% with Plasmodium yoelii [2]. Regarding `C=C(c1ccc(-c2ccccc2)cc1)C1CCOC2(CCC(O)CC2)OO1` (stereo not given), the figures for the Activity in the experiment on Plasmodium yoelii [1] and in the experiment on Plasmodium yoelii [2] were 75.47% and 84.13%, respectively.

As to `C=C(c1cccc2ccccc12)C1CCOC2(CCCCC2)OO1` (stereo not given), the Activity in the experiment with Plasmodium yoelii [1] is listed as 22.25%; in the experiment with Plasmodium yoelii [2] it was 17.16%. In the case of `C=C(c1ccc(-c2ccccc2)cc1)C1CCOC2(CCC(=O)CC2)OO1` (stereo not given), the Activity with Plasmodium yoelii [1] is 100%; in the experiment with Plasmodium yoelii [2], 98.49%. Take `C=C(c1ccc(-c2ccccc2)cc1)C1CCOC2(CCCC2)OO1` (stereo not given): the Activity in the experiment with Plasmodium yoelii [1] is recorded as 42.36%; in the experiment with Plasmodium yoelii [2] it was 64.38%. For `C=C(c1cccc2ccccc12)C1CCOC2(CCCC2)OO1` (stereo not given), in that order: 19.8% and 49.75%. With `C=C(c1ccccc1)C1CCOC2(CCCCC2)OO1` (stereo not given), the Activity in the experiment with Plasmodium yoelii [1] turned out to be 9.38%; in the experiment with Plasmodium yoelii [2], 35.8%. `CCO[C@H]1O[C@@H]2O[C@@]3(C)CC[C@H]4[C@H](C)CC[C@@H]([C@H]1C)[C@@]24OO3` [ARTEMOTIL]: the Activity with Plasmodium yoelii [3] is on record as 100%.

Turning to `C=C(c1ccccc1)C1CCOC2(OO1)C1CC3CC(C1)CC2C3` (stereo not given), the Activity was 27.41% in the experiment with Plasmodium yoelii [1] and 57.36% in the experiment on Plasmodium yoelii [2]. Consider `C=C(c1ccc(-c2ccccc2)cc1)C1CCOC2(CCCCC2)OO1` (stereo not given), for which the figures for the Activity with Plasmodium yoelii [1] and with Plasmodium yoelii [2] were 24.69% and 91.36%, respectively.

For the origin of these results see ChEMBL document CHEMBL1144005, “Orally active 1,2,4-trioxepanes: synthesis and antimalarial activity of a series of 7-arylvinyl-1,2,4-trioxepanes against multidrug-resistant Plasmodium yoelii in Swiss mice” (2008).
